According to ChEMBL document CHEMBL1909046, “DrugMatrix in vitro pharmacology data”:

Columns and labels:
[1] = DRUGMATRIX: Imidazoline I2, Central radioligand binding (ligand: [3H] Idazoxan); format: cell membranes, Rattus norvegicus, Wistar, Cerebral cortex, Membrane; conditions: Not Active = under 50% inhibition at 10 µM
[2] = biological target: T1, Neuropeptide Y receptor type 2 (Homo sapiens, UniProt P49146); format: cell membranes, Membrane; conditions: kan-ts; further: in other assays of this panel Not Active means under 50% inhibition at 10 µM
T1 sequence (P49146 whole entry): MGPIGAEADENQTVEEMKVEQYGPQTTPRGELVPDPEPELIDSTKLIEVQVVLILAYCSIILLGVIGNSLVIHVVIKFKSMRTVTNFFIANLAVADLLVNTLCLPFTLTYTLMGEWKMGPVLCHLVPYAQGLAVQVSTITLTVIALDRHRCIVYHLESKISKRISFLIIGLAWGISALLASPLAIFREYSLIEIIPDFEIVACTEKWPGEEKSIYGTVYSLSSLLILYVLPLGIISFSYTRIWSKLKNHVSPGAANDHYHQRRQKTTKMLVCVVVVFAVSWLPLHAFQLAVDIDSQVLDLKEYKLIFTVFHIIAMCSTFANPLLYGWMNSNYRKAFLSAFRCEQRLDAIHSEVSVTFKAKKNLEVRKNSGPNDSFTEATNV

D(3) dopamine receptor = D(3) dopamine receptor (Homo sapiens, UniProt P35462); test: DRUGMATRIX: Dopamine D3 radioligand binding (ligand: [3H] Spiperone); format: cell membranes, CHO, Membrane
[3] = biological target: Tyrosine-protein kinase Lck (Homo sapiens, UniProt P06239); test: DRUGMATRIX: Protein Tyrosine Kinase, LCK enzyme inhibition (substrate: Poly(Glu:Tyr)); format: cell-based, Insect cells; conditions: insect cells; Not Active = under 50% inhibition at 10 µM
[4] = DRUGMATRIX: Glutamate, NMDA, Phencyclidine radioligand binding (ligand: [3H] TCP); format: cell membranes, Rattus norvegicus, Wistar, Cerebral cortex, Membrane; conditions: Not Active = under 50% inhibition at 10 µM
[5] = biological target: Beta-2 adrenergic receptor (Homo sapiens, UniProt P07550); test: DRUGMATRIX: Adrenergic beta2 radioligand binding (ligand: [3H] CGP-12177); format: cell membranes, Membrane; conditions: cho; Not Active = under 50% inhibition at 10 µM
[6] = DRUGMATRIX: Glutamate, NMDA, Agonism radioligand binding (ligand: [3H] CGP-39653); format: cell membranes, Rattus norvegicus, Wistar, Cerebral cortex, Membrane; conditions: Not Active = under 50% inhibition at 10 µM

Chain of Tyrosine-protein kinase Lck (P06239 whole entry): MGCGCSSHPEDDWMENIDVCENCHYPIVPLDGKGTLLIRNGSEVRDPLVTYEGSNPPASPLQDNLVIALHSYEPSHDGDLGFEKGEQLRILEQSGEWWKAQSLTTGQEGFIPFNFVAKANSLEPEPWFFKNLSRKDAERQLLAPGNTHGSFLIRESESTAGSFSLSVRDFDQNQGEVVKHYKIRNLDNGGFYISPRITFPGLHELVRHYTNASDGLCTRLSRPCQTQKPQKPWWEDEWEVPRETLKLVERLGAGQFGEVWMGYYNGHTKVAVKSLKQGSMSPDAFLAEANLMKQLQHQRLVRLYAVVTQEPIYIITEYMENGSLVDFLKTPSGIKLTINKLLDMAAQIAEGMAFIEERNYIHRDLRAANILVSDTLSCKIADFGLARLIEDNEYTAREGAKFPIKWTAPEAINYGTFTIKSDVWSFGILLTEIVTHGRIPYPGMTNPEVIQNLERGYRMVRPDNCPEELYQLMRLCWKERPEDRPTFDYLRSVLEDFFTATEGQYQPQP
Chain of D(3) dopamine receptor (P35462 whole entry): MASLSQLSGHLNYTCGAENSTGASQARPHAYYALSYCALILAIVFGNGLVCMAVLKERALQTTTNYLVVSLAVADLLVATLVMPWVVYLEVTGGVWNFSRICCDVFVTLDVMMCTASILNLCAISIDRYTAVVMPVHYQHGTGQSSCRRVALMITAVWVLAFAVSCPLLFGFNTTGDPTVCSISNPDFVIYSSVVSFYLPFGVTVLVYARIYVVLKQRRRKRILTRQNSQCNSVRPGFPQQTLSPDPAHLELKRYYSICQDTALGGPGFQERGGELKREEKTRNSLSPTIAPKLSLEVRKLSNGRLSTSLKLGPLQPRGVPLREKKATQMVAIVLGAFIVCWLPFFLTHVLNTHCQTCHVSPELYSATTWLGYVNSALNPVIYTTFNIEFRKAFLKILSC
Chain of Beta-2 adrenergic receptor (P07550 whole entry): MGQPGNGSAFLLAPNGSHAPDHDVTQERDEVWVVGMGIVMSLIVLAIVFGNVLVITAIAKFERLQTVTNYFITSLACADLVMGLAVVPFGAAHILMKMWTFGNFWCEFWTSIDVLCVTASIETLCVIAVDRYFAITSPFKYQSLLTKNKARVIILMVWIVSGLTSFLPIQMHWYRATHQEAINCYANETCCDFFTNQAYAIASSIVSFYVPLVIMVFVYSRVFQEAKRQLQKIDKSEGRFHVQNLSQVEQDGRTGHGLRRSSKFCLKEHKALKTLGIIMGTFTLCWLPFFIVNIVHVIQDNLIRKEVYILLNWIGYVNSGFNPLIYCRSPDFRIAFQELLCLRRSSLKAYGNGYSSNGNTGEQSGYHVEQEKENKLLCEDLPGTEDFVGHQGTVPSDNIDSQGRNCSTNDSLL

Compound	IC50 [1]	Ki [1]	IC50 [2]	IC50 (D(3) dopamine receptor; cho)	IC50 [3]	IC50 [4]	Ki [4]	IC50 [5]	IC50 [6]	Ki [6]	IC50 (D(3) dopamine receptor; read-out: IC50)	Ki (D(3) dopamine receptor; read-out: Ki)
CC1(C)O[C@@H]2C[C@H]3[C@@H]4C[C@H](F)C5=CC(=O)CC[C@]5(C)[C@H]4[C@@H](O)C[C@]3(C)[C@]2(C(=O)CO)O1 [FLURANDRENOLIDE]	Not Active	Not Active	Not Active	Not Active	Not Active	Not Active	Not Active	Not Active	Not Active	Not Active	–	–
CN(C)c1ccc(C(=C2C=CC(=[N+](C)C)C=C2)c2ccc(N(C)C)cc2)cc1.[Cl-] [GENTIAN VIOLET]	Not Active	Not Active	Not Active	–	Not Active	Not Active	Not Active	Not Active	Not Active	Not Active	831 nM	282 nM
Cc1ccc(S(=O)(=O)NC(=O)NN2CC3CCCC3C2)cc1 (stereo unspecified) [GLICLAZIDE]	Not Active	Not Active	Not Active	Not Active	Not Active	Not Active	Not Active	Not Active	Not Active	Not Active	–	–
NC(=O)NO [HYDROXYUREA]	Not Active	Not Active	Not Active	Not Active	Not Active	Not Active	Not Active	Not Active	Not Active	Not Active	–	–
CC(C)Cc1ccc(C(C)C(=O)O)cc1 (stereo unspecified) [IBUPROFEN]	Not Active	Not Active	Not Active	Not Active	Not Active	Not Active	Not Active	Not Active	Not Active	Not Active	–	–
COc1ccc2c(c1)c(CC(=O)O)c(C)n2C(=O)c1ccc(Cl)cc1 [INDOMETHACIN]	Not Active	Not Active	Not Active	Not Active	Not Active	Not Active	Not Active	Not Active	Not Active	Not Active	–	–
CCc1c2c(nc3ccc(OC(=O)N4CCC(N5CCCCC5)CC4)cc13)-c1cc3c(c(=O)n1C2)COC(=O)[C@]3(O)CC [IRINOTECAN]	Not Active	Not Active	Not Active	Not Active	Not Active	Not Active	Not Active	Not Active	Not Active	Not Active	–	–
CC(C(=O)O)c1cccc(C(=O)c2ccccc2)c1 (stereo unspecified) [KETOPROFEN]	Not Active	Not Active	Not Active	Not Active	Not Active	Not Active	Not Active	Not Active	Not Active	Not Active	–	–
Nc1ccn([C@@H]2CS[C@H](CO)O2)c(=O)n1 [LAMIVUDINE]	Not Active	Not Active	Not Active	Not Active	Not Active	Not Active	Not Active	Not Active	Not Active	Not Active	–	–
O=S(=O)([O-])CCS.[Na+] [MESNA]	Not Active	Not Active	Not Active	Not Active	Not Active	Not Active	Not Active	Not Active	Not Active	Not Active	–	–
C#C[C@]1(O)CC[C@H]2[C@@H]3CCc4cc(OC)ccc4[C@H]3CC[C@@]21C [MESTRANOL]	Not Active	Not Active	Not Active	Not Active	Not Active	Not Active	Not Active	Not Active	Not Active	Not Active	–	–
CC(=O)Nc1cccc(O)c1 [METACETAMOL]	Not Active	Not Active	Not Active	Not Active	Not Active	Not Active	Not Active	Not Active	Not Active	Not Active	–	–
Cc1ncc([N+](=O)[O-])n1CCO [METRONIDAZOLE]	Not Active	Not Active	Not Active	Not Active	Not Active	Not Active	Not Active	Not Active	Not Active	Not Active	–	–
CC(C)(C(=O)c1cccnc1)c1cccnc1 [METYRAPONE]	Not Active	Not Active	Not Active	Not Active	Not Active	Not Active	Not Active	Not Active	Not Active	Not Active	–	–
Oc1ccc(OCc2ccccc2)cc1 [MONOBENZONE]	Not Active	Not Active	Not Active	Not Active	Not Active	Not Active	Not Active	Not Active	Not Active	Not Active	–	–
CC(C)(Oc1ccc(C2CCCc3ccccc32)cc1)C(=O)O (stereo unspecified) [NAFENOPIN]	Not Active	Not Active	Not Active	Not Active	Not Active	Not Active	Not Active	Not Active	Not Active	Not Active	–	–
COc1ccc2cc([C@H](C)C(=O)O)ccc2c1 [NAPROXEN]	Not Active	Not Active	Not Active	Not Active	Not Active	Not Active	Not Active	Not Active	Not Active	Not Active	–	–
CC(C)[C@H]1CC[C@H](C(=O)N[C@H](Cc2ccccc2)C(=O)O)CC1 [NATEGLINIDE]	Not Active	Not Active	Not Active	Not Active	Not Active	Not Active	Not Active	Not Active	Not Active	Not Active	–	–
CCN[C@@H]1C[C@H](N)[C@@H](O[C@H]2OC(CN)=CC[C@H]2N)[C@H](O)[C@H]1O[C@H]1OC[C@](C)(O)[C@H](NC)[C@H]1O [NETILMICIN]	Not Active	Not Active	Not Active	Not Active	Not Active	Not Active	Not Active	Not Active	Not Active	Not Active	–	–
COC(=O)C1=C(C)NC(C)=C(C(=O)OCC(C)C)C1c1ccccc1[N+](=O)[O-] (stereo unspecified) [NISOLDIPINE]	Not Active	Not Active	Not Active	Not Active	Not Active	Not Active	Not Active	Not Active	Not Active	Not Active	–	–
CCOC(=O)C1=C(C)NC(C)=C(C(=O)OC)C1c1cccc([N+](=O)[O-])c1 (stereo unspecified) [NITRENDIPINE]	Not Active	Not Active	Not Active	Not Active	Not Active	Not Active	Not Active	Not Active	Not Active	Not Active	–	–
C#C[C@]1(OC(C)=O)CC[C@H]2[C@@H]3CCC4=CC(=O)CC[C@@H]4[C@H]3CC[C@@]21C [NORETHINDRONE ACETATE]	Not Active	Not Active	Not Active	Not Active	Not Active	Not Active	Not Active	Not Active	Not Active	Not Active	–	–
COc1ccc2[nH]c([S+]([O-])Cc3ncc(C)c(OC)c3C)nc2c1 (stereo unspecified) [OMEPRAZOLE]	Not Active	Not Active	Not Active	Not Active	Not Active	Not Active	Not Active	Not Active	Not Active	Not Active	–	–
Cc1nccn1CC1CCc2c(c3ccccc3n2C)C1=O (stereo unspecified) [ONDANSETRON]	Not Active	Not Active	Not Active	Not Active	Not Active	Not Active	Not Active	Not Active	Not Active	Not Active	–	–
CCn1cc(C(=O)O)c(=O)c2cc(F)c(N3CCN(C)CC3)cc21 [PEFLOXACIN]	Not Active	Not Active	Not Active	Not Active	Not Active	Not Active	Not Active	Not Active	Not Active	Not Active	–	–
CCCCOc1ccc(OCCCN2CCOCC2)cc1 [PRAMOXINE]	Not Active	Not Active	Not Active	Not Active	Not Active	Not Active	Not Active	Not Active	Not Active	Not Active	–	–
O=C(C1CCCCC1)N1CC(=O)N2CCc3ccccc3C2C1 (stereo unspecified) [PRAZIQUANTEL]	Not Active	Not Active	Not Active	Not Active	Not Active	Not Active	Not Active	Not Active	Not Active	Not Active	–	–
